# Reference: ChEMBL document CHEMBL1154899, “Synthesis and biological evaluation of caffeic acid 3,4-dihydroxyphenethyl ester” (J Nat Prod, 2010)
# What was measured:
# Format in all cases: functional
# [1] = system: UACC-257; experiment: Antiproliferative activity against human UACC257 cells assessed as cell growth at 50 uM by SRB assay; settings: read-out: Activity
# [2] = system: SK-OV-3; experiment: Antiproliferative activity against human SKOV3 cells assessed as cell growth at 50 uM by SRB assay; settings: read-out: Activity
# [3] = system: HT-29; experiment: Antiproliferative activity against human HT-29 cells assessed as cell growth at 5 uM by SRB assay; settings: read-out: Activity
# [4] = system: SF-539; experiment: Antiproliferative activity against human SF539 cells assessed as cell growth at 5 uM by SRB assay; settings: read-out: Activity
# [5] = system: IGROV-1; experiment: Antiproliferative activity against human IGROV1 cells assessed as cell growth at 5 uM by SRB assay; settings: read-out: Activity
# [6] = system: OVCAR-3; experiment: Antiproliferative activity against human OVCAR-3 cells assessed as cell growth at 5 uM by SRB assay; settings: read-out: Activity
# [7] = system: RXF 393; experiment: Antiproliferative activity against human RXF393 cells assessed as cell growth at 5 uM by SRB assay; settings: read-out: Activity
# [8] = system: MCF7; experiment: Antiproliferative activity against human MCF7 cells assessed as cell growth at 5 uM by SRB assay; settings: read-out: Activity
# [9] = system: MDA-MB-231; experiment: Antiproliferative activity against human MDA-MB-231 cells assessed as cell growth at 5 uM by SRB assay; settings: read-out: Activity
# [10] = system: ACHN; experiment: Antiproliferative activity against human ACHN cells assessed as cell growth at 500 uM by SRB assay; settings: read-out: Activity
# [11] = system: MDA-MB-435; experiment: Antiproliferative activity against human MDA-MB-435 cells assessed as cell growth at 5 uM by SRB assay; settings: read-out: Activity
# [12] = system: CCRF-CEM; experiment: Antiproliferative activity against human CCRF-CEM cells assessed as cell growth at 50 uM by SRB assay; settings: read-out: Activity
# [13] = system: K562; experiment: Antiproliferative activity against human K562 cells assessed as cell growth at 50 uM by SRB assay; settings: read-out: Activity
# [14] = system: A549; experiment: Antiproliferative activity against human A549 cells assessed as cell growth at 50 uM by SRB assay; settings: read-out: Activity
# [15] = system: NCI-H460; experiment: Antiproliferative activity against human NCI-H460 cells assessed as cell growth at 5 mM by SRB assay; settings: read-out: Activity
# [16] = system: SW-620; experiment: Antiproliferative activity against human SW620 cells assessed as cell growth at 5 mM by SRB assay; settings: read-out: Activity
# [17] = system: T47D; experiment: Antiproliferative activity against human T47D cells assessed as cell growth at 50 uM by SRB assay; settings: read-out: Activity
# [18] = system: K562; experiment: Antiproliferative activity against human K562 cells assessed as cell growth at 500 uM by SRB assay; settings: read-out: Activity
# [19] = system: MOLT-4; experiment: Antiproliferative activity against human MOLT4 cells assessed as cell growth at 500 uM by SRB assay; settings: read-out: Activity
# [20] = system: HCC 2998; experiment: Antiproliferative activity against human HCC2998 cells assessed as cell growth at 500 uM by SRB assay; settings: read-out: Activity
# [21] = system: HCT-15; experiment: Antiproliferative activity against human HCT15 cells assessed as cell growth at 500 uM by SRB assay; settings: read-out: Activity
# [22] = system: SW-620; experiment: Antiproliferative activity against human SW620 cells assessed as cell growth at 500 uM by SRB assay; settings: read-out: Activity
# [23] = system: IGROV-1; experiment: Antiproliferative activity against human IGROV1 cells assessed as cell growth at 500 uM by SRB assay; settings: read-out: Activity
# [24] = system: OVCAR-3; experiment: Antiproliferative activity against human OVCAR-3 cells assessed as cell growth at 500 uM by SRB assay; settings: read-out: Activity
# [25] = system: OVCAR-5; experiment: Antiproliferative activity against human OVCAR5 cells at 5 mM by SRB assay
# [26] = system: OVCAR-5; experiment: Antiproliferative activity against human OVCAR5 cells at 50 uM by SRB assay
# [27] = system: OVCAR-5; experiment: Antiproliferative activity against human OVCAR5 cells at 0.5 uM by SRB assay
# [28] = system: NCI-H226; experiment: Antiproliferative activity against human NCI-H226 cells by SRB assay
# [29] = system: NCI-H522; experiment: Antiproliferative activity against human NCI-H522 cells by SRB assay
# [30] = system: HCT-116; experiment: Antiproliferative activity against human HCT116 cells by SRB assay
# [31] = system: HT-29; experiment: Antiproliferative activity against human HT-29 cells by SRB assay
# [32] = system: SF-268; experiment: Antiproliferative activity against human SF268 cells by SRB assay
# [33] = system: LOX IMVI; experiment: Antiproliferative activity against human LOXIMVI cells by SRB assay
# [34] = system: UACC-62; experiment: Antiproliferative activity against human UACC62 cells by SRB assay
# [35] = system: UO-31; experiment: Antiproliferative activity against human UO31 cells by SRB assay
# [36] = system: CCRF-CEM; experiment: Antiproliferative activity against human CCRF-CEM cells assessed as cell growth at 0.5 uM by SRB assay; settings: read-out: Activity
# [37] = system: SK-MEL-5; experiment: Antiproliferative activity against human SK-MEL-5 cells assessed as cell growth at 0.5 uM by SRB assay; settings: read-out: Activity
# [38] = system: UACC-62; experiment: Antiproliferative activity against human UACC62 cells assessed as cell growth at 0.5 uM by SRB assay; settings: read-out: Activity
# [39] = system: A549; experiment: Antiproliferative activity against human A549 cells assessed as cell growth at 0.5 uM by SRB assay; settings: read-out: Activity
# [40] = system: EKVX; experiment: Antiproliferative activity against human EKVX cells assessed as cell growth at 0.5 uM by SRB assay; settings: read-out: Activity
# [41] = system: SF-295; experiment: Antiproliferative activity against human SF295 cells assessed as cell growth at 0.5 uM by SRB assay; settings: read-out: Activity
# [42] = system: BT-549; experiment: Antiproliferative activity against human BT549 cells assessed as cell growth at 0.5 uM by SRB assay; settings: read-out: Activity
# [43] = read-out: LC50 (the source's name)
# [44] = read-out: pLC50 (the source's name) (converted)
smiles,measurement,setting,value
O=C(/C=C/c1ccc(O)c(O)c1)OCCc1ccc(O)c(O)c1,growth at 50 µM,[1],92%
same,growth at 50 µM,[2],88%
same,growth at 5 µM,[3],103%
same,growth at 5 µM,[4],81%
same,growth at 5 µM,[5],102%
same,growth at 5 µM,[6],99%
same,growth at 5 µM,[7],84%
same,growth at 5 µM,[8],108%
same,growth at 5 µM,[9],108%
same,growth at 500 µM,[10],38%
same,growth at 5 µM,[11],92%
same,growth at 50 µM,[12],60%
same,growth at 50 µM,[13],90%
same,growth at 50 µM,[14],101%
same,growth at 5000 µM,[15],1%
same,growth at 5000 µM,[16],19%
same,growth at 50 µM,[17],93%
same,growth at 500 µM,[18],9%
same,growth at 500 µM,[19],39%
same,growth at 500 µM,[20],80%
same,growth at 500 µM,[21],38%
same,growth at 500 µM,[22],64%
same,growth at 500 µM,[23],35%
same,growth at 500 µM,[24],50%
same,Activity,[25],51%
same,Activity,[26],97%
same,Activity,[27],94%
same,GI50,[28]; read-out: GI50,13.3 µM
same,CC50,[28]; [43],> 50 µM
same,TGI,[28]; read-out: TGI,> 50 µM
same,GI50,[28]; read-out: pGI50 (converted),13.5 µM
same,CC50,[28]; [44],> 50.1 µM
same,TGI,[28]; read-out: pTGI,> 50.1 µM
same,GI50,[29]; read-out: GI50,1.26 µM
same,CC50,[29]; [43],> 50 µM
same,TGI,[29]; read-out: TGI,8.61 µM
same,GI50,[29]; read-out: pGI50 (converted),1.26 µM
same,CC50,[29]; [44],> 50.1 µM
same,TGI,[29]; read-out: pTGI (converted),8.91 µM
same,GI50,[30]; read-out: GI50,11.2 µM
same,CC50,[30]; [43],> 50 µM
same,TGI,[30]; read-out: TGI,> 50 µM
same,GI50,[30]; read-out: pGI50 (converted),11.2 µM
same,CC50,[30]; [44],> 50.1 µM
same,TGI,[30]; read-out: pTGI,> 50.1 µM
same,GI50,[31]; read-out: GI50,28.5 µM
same,CC50,[31]; [43],> 50 µM
same,TGI,[31]; read-out: TGI,> 50 µM
same,GI50,[31]; read-out: pGI50 (converted),28.2 µM
same,CC50,[31]; [44],> 50.1 µM
same,TGI,[31]; read-out: pTGI,> 50.1 µM
same,GI50,[32]; read-out: GI50,6.93 µM
same,CC50,[32]; [43],> 50 µM
same,TGI,[32]; read-out: TGI,> 50 µM
same,GI50,[32]; read-out: pGI50 (converted),6.61 µM
same,CC50,[32]; [44],> 50.1 µM
same,TGI,[32]; read-out: pTGI,> 50.1 µM
same,GI50,[33]; read-out: GI50,6.38 µM
same,CC50,[33]; [43],> 50 µM
same,TGI,[33]; read-out: TGI,35.1 µM
same,GI50,[33]; read-out: pGI50 (converted),6.31 µM
same,CC50,[33]; [44],> 50.1 µM
same,TGI,[33]; read-out: pTGI (converted),35.5 µM
same,GI50,[34]; read-out: GI50,5.33 µM
same,CC50,[34]; [43],> 50 µM
same,TGI,[34]; read-out: TGI,38.3 µM
same,GI50,[34]; read-out: pGI50 (converted),5.37 µM
same,CC50,[34]; [44],> 50.1 µM
same,TGI,[34]; read-out: pTGI (converted),38 µM
same,GI50,[35]; read-out: GI50,1.75 µM
same,CC50,[35]; [43],> 50 µM
same,TGI,[35]; read-out: TGI,21.1 µM
same,GI50,[35]; read-out: pGI50 (converted),1.66 µM
same,CC50,[35]; [44],> 50.1 µM
same,TGI,[35]; read-out: pTGI (converted),20.9 µM
same,growth at 0.5 µM,[36],95%
same,growth at 0.5 µM,[37],97%
same,growth at 0.5 µM,[38],91%
same,growth at 0.5 µM,[39],105%
same,growth at 0.5 µM,[40],88%
same,growth at 0.5 µM,[41],98%
same,growth at 0.5 µM,[42],94%
